According to patent US20170035894A1, “DRUG DELIVERY CONJUGATES FOR TREATING RESISTANT CANCER AND FOR USE IN COMBINATION THERAPY” (ENDOCYTE, INC., priority 2014, published 2017):

What was measured:
Assay in all cases: In vitro activity against cancer cell lines, 3H-thymidine incorporation
Assay type in all cases: cell-based, human
Conditions in all cases: FR expression −; evaluated from 0.1-100 nM
AN3CA = test system: AN3CA
Protocol: (§1) METHOD. In vitro activity against various cancer cell lines. IC50 values were generated for various cell lines. Cells were heavily seeded in 24-well Falcon plates and allowed to form nearly confluent monolayers overnight. Thirty minutes prior to the addition of the test compound, spent medium was aspirated from all wells and replaced with fresh folate-deficient RPMI medium (FFRPMI). A subset of wells were designated to receive media containing 100 μM folic acid. The cells in the designated wells were used to determine the targeting specificity. Without being bound by theory it is believed herein that the cytotoxic activity produced by test compounds in the presence of excess folic acid, i.e. where there is competition for FR binding, corresponds to the portion of the total activity that is unrelated to FR-specific delivery. Following one rinse with 1 mL of fresh FFRPMI containing 10% heat-inactivated fetal calf serum, each well received 1 mL of medium containing increasing concentrations of test compound (4 wells per sample) in the presence or absence of 100 μM free folic acid as indicated. Treated cells were pulsed for 2 h at 37° C., rinsed 4 times with 0.5 mL of media, and then chased in 1 mL of fresh medium up to 70 h. Spent medium was aspirated from all wells and replaced with fresh medium containing 5 μCi/mL ^3H-thymidine. Following a further 2 h 37° C. incubation, cells were washed 3 times with 0.5 mL of PBS and then treated with 0.5 mL of ice-cold 5% trichloroacetic acid per well. After 15 min, the trichloroacetic acid was aspirated and the cell material solubilized by the addition of 0.5 mL of 0.25 N sodium hydroxide for 15 min. A 450 μL aliquot of each solubilized sample was transferred to a scintillation vial containing 3 mL of Ecolume scintillation cocktail and then counted in a liquid scintillation counter. Final results are expressed as the percentage of ^3H-thymidine incorporation relative to untreated controls.

HepG2 = test system: HepG2
Protocol: as §1

H23 = test system: H23
Protocol: as §1

Measured: Activity (IC50)

CCCC(=O)OCN(C(=O)[C@@H](NC(=O)[C@H]1CCCCN1C)C(C)CC)[C@H](C[C@@H](OC(C)=O)c1nc(C(=O)N[C@@H](Cc2ccc(O)cc2)C[C@H](C)C(=O)NNC(=O)OCCSSC[C@@H](NC(=O)[C@H](CCC(=O)NC[C@H](O)[C@@H](O)[C@H](O)[C@H](O)CO)NC(=O)[C@@H](CCC(=O)O)NC(=O)[C@H](CCC(=O)NC[C@H](O)[C@@H](O)[C@H](O)[C@H](O)CO)NC(=O)[C@@H](CCC(=O)O)NC(=O)[C@H](CCC(=O)NC[C@H](O)[C@@H](O)[C@H](O)[C@H](O)CO)NC(=O)CC[C@@H](NC(=O)c2ccc(NCc3cnc4nc(N)[nH]c(=O)c4n3)cc2)C(=O)O)C(=O)O)cs1)C(C)C (stereo in doubt) [EC1456]
Inactive: all assays above
